Data as given in patent US6737383B1, “Herbicidal oxadiazolidines” (priority 1999, dated 2004).

How the values were obtained:
soybean = assay: Test B pre/postemergence soybean; format: in vivo, Glycine max
How it was run: (§1)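 Test chemicals in a non-phytotoxic solvent mixture with surfactant were sprayed preemergence onto planted seeds and postemergence onto plants 2 to 18 cm tall (1- to 4-leaf stage). After twelve to sixteen days in a greenhouse, injury was visually rated against untreated controls from 0 (no effect) to 10 (complete control).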

giant foxtail = assay: Test B pre/postemergence giant foxtail; format: in vivo, Setaria faberii
How it was run: as §1

sugar beet = assay: Test B pre/postemergence sugar beet; format: in vivo, Beta vulgaris
How it was run: as §1

crabgrass = assay: Test B pre/postemergence crabgrass; format: in vivo, Digitaria sanguinalis
How it was run: as §1

[1] = Preemergence, Rate 62 g/ha, scale of 0 to 10 where 0 is no effect and 10 is complete control
[2] = Preemergence, Rate 250 g/ha, scale of 0 to 10 where 0 is no effect and 10 is complete control
[3] = Preemergence, Rate 500 g/ha, scale of 0 to 10 where 0 is no effect and 10 is complete control
[4] = Rate 62 g/ha, Postemergence, scale 0 to 10 (0 no effect, 10 complete control)
[5] = Rate 125 g/ha, Postemergence, scale of 0 to 10 where 0 is no effect and 10 is complete control
[6] = Rate 250 g/ha, Postemergence, scale of 0 to 10 where 0 is no effect and 10 is complete control
[7] = Postemergence, Rate 125 g/ha, scale 0 to 10, 0 is no effect, 10 is complete control
[8] = Rate 500 g/ha, Postemergence, scale 0 to 10, 0 no effect, 10 complete control

Compound	Soybean plant response rating (soybean; [1])	Soybean plant response rating (0 to 10 scale) (soybean; Preemergence, Rate 125 g/ha)	Soybean plant response rating (soybean; [2])	Soybean plant response rating (soybean; [3])	Soybean plant response rating (soybean; [4])	Plant response rating, Soybean (soybean; [6])	Giant foxtail plant response rating (giant foxtail; [1])	Giant foxtail plant response rating (giant foxtail; [2])	Giant foxtail plant response rating (giant foxtail; [3])	Giant foxtail plant response rating (giant foxtail; [4])	Plant response rating, Giant foxtail (giant foxtail; [6])	Sugarbeets plant response rating (sugar beet; [1])	Sugarbeets plant response rating (0 to 10 scale) (sugar beet; Preemergence, Rate 125 g/ha)	Sugarbeets plant response rating (sugar beet; [2])	Sugarbeets plant response rating (sugar beet; [3])	Sugarbeets plant response rating (sugar beet; [4])	Plant response rating, Sugarbeets (sugar beet; [6])	Crabgrass plant response rating (crabgrass; [1])	Crabgrass plant response rating (0 to 10 scale) (crabgrass; Preemergence, Rate 125 g/ha)	Crabgrass plant response rating (crabgrass; [2])	also measured
CC(C)N(C(=O)n1oc(=O)n(Cc2nnsc2Cl)c1=O)c1ccc(F)cc1F [Compound 320]	0	0	0	0	2	3	0	6	7	0	0	0	0	0	0	0	2	2	3	3	Soybean plant response rating (soybean; [5]): 3; Giant foxtail plant response rating (giant foxtail; [5]): 0; Sugarbeets plant response rating (sugar beet; [5]): 2; Crabgrass plant response rating (crabgrass; [3]): 7; Crabgrass plant response rating (crabgrass; [4]): 0; Crabgrass plant response rating (crabgrass; [5]): 0; Plant response rating, Crabgrass (crabgrass; [6]): 0
CC(C)N(C(=O)n1oc(=O)n(C2CC3CCC2C3)c1=O)c1ccc(F)cc1 (centres unmarked) [Compound 327]	0	0	0	0	5	6	7	9	9	0	0	0	0	0	3	0	0	0	2	3	Plant response rating, Soybean (soybean; [7]): 6; Plant response rating, Soybean (soybean; [8]): 7; Plant response rating, Giant foxtail (giant foxtail; [7]): 0; Giant foxtail plant response rating (0 to 10 scale) (giant foxtail; Preemergence, Rate 125 g/ha): 8; Plant response rating, Giant foxtail (giant foxtail; [8]): 0; Plant response rating, Sugarbeets (sugar beet; [7]): 0; Plant response rating, Sugarbeets (sugar beet; [8]): 0; Plant response rating, Crabgrass (crabgrass; [7]): 0; Crabgrass plant response rating (crabgrass; [3]): 5; Crabgrass plant response rating (crabgrass; [4]): 0; Plant response rating, Crabgrass (crabgrass; [6]): 0; Plant response rating, Crabgrass (crabgrass; [8]): 1
